{
  "source": "patent US20240018611A1",
  "about": "“IMMUNE MOLECULE VIRUS PARTICLE DETECTION KIT” (priority 2021, published 2024)",
  "key": {"[1]": {"tested_on": "HBV", "assay": "HBV DNA in supernatant of ETV-treated HepG2.2.15 cells (immune capture of virus particles + qPCR)", "assay_type": "cell-based, hepatitis B virus (HBV)", "description": "(§1) The inventor selects the supernatant of HBV-secreting cells ([…] and HepAD38) for testing and verification. HepG2.2.15 and HepAD38 are the two cell lines that are commonly used in the laboratory to stably express HBV, and entecavir (ETV) is the first-line drug in clinical treatment of hepatitis B at present. The inventor uses different concentration gradients of ETV (0.1 μM, 1 μM, 10 μM, PBS as control group). Then, the virus particles are captured by virus particle-antibody (the envelope PreS1 monoclonal antibody and the core particle HBc monoclonal antibody)-biotin-streptavidin-magnetic beads, and the genomic DNA of HBV in the corresponding virus particles is detected.\n(§2) In order to study the dynamic changes of HBV DNA with different components, two cell lines, HepG2.2.15 and HepAD38, which stably express HBV, are pretreated with different concentration gradients of ETV (0.1 μM, 1 μM, 10 μM and a PBS control group), and the supernatant is discarded after 24 hours, and replaced with fresh Dulbecco's modified eagle medium (DMEM) and ETV with different concentration gradients. After 72 hours, the supernatant is transferred to an EP tube, and the virus particles in the supernatant are captured by PreS1 antibody-magnetic beads and HBc antibody-magnetic beads respectively, and the captured products are detected by qPCR.\nThe above research results mean that the capture method can separate and capture virus particles in cell supernatant. […] The same conclusion is obtained in HepAD38 cell experiment (FIGS. 10A-10B)."}, "[2]": {"tested_on": "HBV", "assay": "HBV DNA in supernatant of ETV-treated HepAD38 cells (immune capture of virus particles + qPCR)", "assay_type": "cell-based, hepatitis B virus (HBV)", "description": "as §1, §2"}, "[3]": {"settings": "ETV 0.1 μM, 1 μM, 10 μM, PBS control, antibody-biotin-streptavidin-magnetic bead capture, FIGS. 2A-2B"}},
  "data": [
    {"smiles": "C=C1[C@H](CO)[C@@H](O)C[C@@H]1n1cnc2c(=O)[nH]c(N)nc21", "note": "[ETV, entecavir]", "values": [
      {"measurement": "viral genomic DNA (total, complete virus particles, core particles) in cell supernatant versus ETV concentration", "setting": "[1]; [3]", "value": "The higher the concentration of ETV, the lower the viral genomic DNA detected by the three methods"},
      {"measurement": "copies of HBV DNA in the supernatant", "setting": "[1]; ETV 0.1 μM, 1 μM, 10 μM, supernatant after 72 hours, PreS1/HBc antibody-magnetic bead capture, FIGS. 9A-9B", "value": "decreased in a dose-dependent manner"},
      {"measurement": "total HBV genomic DNA, complete virus particle genomic DNA and virus core particle DNA over time", "setting": "[1]; ETV 1 uM, FIGS. 2C-2D", "value": "all decreased rapidly in two days"},
      {"measurement": "viral genomic DNA (total, complete virus particles, core particles) in cell supernatant versus ETV concentration", "setting": "[2]; [3]", "value": "The higher the concentration of ETV, the lower the viral genomic DNA detected by the three methods"},
      {"measurement": "total HBV genomic DNA, complete virus particle genomic DNA and virus core particle DNA over time", "setting": "[2]; ETV 1 uM, FIGS. 2C-2D", "value": "all decreased rapidly in two days"}
    ]}
  ]
}
